Assay results reported in US7358091B2, “Device and methods for identifying and treating aspirin non-responsive patients” (Portola Pharmaceuticals, Inc., priority 2004, dated 2008).
Bridge positions count the residues as written; N and C are the ends. Square brackets hold non-standard residues; d marks the D form. Peptide text beside a SMILES is read from it. hArg = N=C(N)NCCCC[C@H](N)C(=O)O; Mpa = O=C(O)CCS

Legend:
[1] = test system: aggregation induced by ADP; assay: Aggregation induced by ADP; assay type: cell-based; conditions: 100 μM
[2] = test system: preformed thrombi on collagen coated surface; assay: Real time thrombosis perfusion chamber assay, destabilization of preformed thrombi; assay type: cell-based; conditions: for effect on preformed thrombi, aspirin background: aspirinated blood over preformed aspirinated thrombi; for mean slope after first perfusion (mSAFP), aspirin background: aspirinated blood, aspirin alone = saline control, eptifibatide; for mean slope after first perfusion (mSAFP), aspirin background / mean slope after first perfusion (mSAFP): 2-MeSAMP 100 μM; for mean slope after first perfusion (mSAFP): untreated blood 210 seconds at 1500/sec, then blood treated with agent, eptifibatide 2.4 μM, Ifetroban 0.3 μM; for effect on preformed thrombi: untreated blood background, second perfusion with agent
Procedure: Evaluation of the ability of thromboxane receptor (TP) antagonists to destabilize preformed thrombi was performed as followed in the real time thrombosis perfusion chamber assay (monitoring of fluorescently labeled platelets onto collagen coated surface). Untreated samples of blood were first perfused through the collagen-coated perfusion chamber for 210 seconds at 1500/sec. […] In order to evaluate a possible role for PGD2 in mediating thrombus destabilization, aspirinated blood was perfused in presence of PDG2 over preformed aspirinated thrombi.

[3] = test system: platelet function under high shear stress; assay: PFA-100 closure time, CEpi and CADP cartridges; assay type: cell-based, human; conditions: 325 mg/d ASA for 3 days
From the text: Whole blood was drawn into 3.8% Sodium citrate vacuum tubes and analyzed using the Platelet Function Analyzer (PFA-100). Sample results are based on the platelet function under high shear stress. Platelet adhesion and aggregation are triggered by a biologically active membrane coated with collagen and either epinephrine (EPI) or ADP. Platelets exposed to EPI or ADP under flow conditions are activated on the collagen surface. The time required to full occlusion of an aperture cut in the membrane defines the “closure time” (CT).
(§1) The effects of aspirin (normal volunteers were drug free for 2 weeks prior to 325 mg/d ASA for 3 days) and 50% inhibition of P2Y12 on arachidonic acid-induced platelet aggregation in PRP, TxB2 generation, PFA-100 with both Collagen/Epinephrine (CEpi) and Collagen/ADP (CADP) cartridges were evaluated. Arachidonic acid-induced platelet aggregation and TxB2 generation were abolished by aspirin treatment compared with baseline for all 5 donors. […] All donors gave the expected prolongation of the CEpi cartridge after aspirin treatment. In addition, 2 out of 5 donors presented unusual phenotypes (FIG. 6). In donor 1, aspirin increased the CADP closure time, whereas in donor 2, P2Y12 antagonism increased closure time of the CEpi cartridge above the limit defined by the manufacturer for aspirin effect.

patients = conditions: human, in vivo; cited from earlier work
platelet aggregation = assay: Ultegra RPFA-ASA assay in whole blood; assay type: cell-based, human; conditions: aspirin 275 μM added to the blood in vitro; all 5 blood donors; compared with 50% inhibition of P2Y12
Procedure: Whole blood was drawn into 3.2% Sodium citrate vacuum tubes and analyzed using the Ultegra RPFA-ASA assay. Sample results are based on the extent of platelet aggregation, reported in Aspirin Reaction Units (ARU). ARU≥250 is consistent with no platelet dysfunction, ARU<550 is consistent with platelet dysfunction due to aspirin.
The effects of aspirin (275 μM added to the blood in vitro) and 50% inhibition of P2Y12 (corresponding to the extent of inhibition achieved in patients under PLAVIX (clopidogrel bisulfate) treatment) were evaluated in the RPFA-ASA (n=5). A direct P2Y12 antagonist (5-chloro-N-[({4-[7-fluoro-6-(methylamino)-1-oxoisoquinolin-2(1H)-yl]phenyl}amino)carbonyl]thiophene-2-sulfonamide) is used in vitro at a concentration that inhibits 50% of ADP-induced platelet aggregation in PRP as PLAVIX (clopidogrel bisulfate) cannot be used in vitro (it needs to be metabolized by the liver to generate the active metabolite).

[4] = test system: thrombotic process on collagen; assay: Fibrillar type III collagen-coated capillary perfusion chamber at arterial shear rates; assay type: cell-based, human
Procedure: In one example of the perfusion chamber assay of the invention, the assay enables the investigator to evaluate thrombotic process under arterial shear rates in less than 15 minutes after blood draw. The simplicity of the perfusion chamber allows for multiple parallel experiments as the thrombogenic surface is deposited inside a regular glass capillary tube. The system is easy to use as only 2 tubings are needed: a proximal tubing to connect the blood sample to the capillary, and a distal tubing which connects the capillary to the pump. A limited amount of blood is required to reconstitute arterial shear rate conditions (4 ml of blood for 1 perfusion chamber). […]
At the end of the perfusion, the capillary is rinsed for 20 sec and fixed with 2.5% phosphate buffered glutaraldehyde for 1 minute. […] An En Face picture located 5 mm downstream of the proximal part of the capillary is taken, and the grey level of each thrombus or platelets located in a window 400 μm long×400 μm wide is measured (Simple PCI software, Compix Inc. Imaging System). Thrombotic deposits were then embedded in Epon, subsequently cross sectioned (at the same location used for measurement of the grey level) and their mean thrombus volume determined. […]

[5] = test system: thrombotic deposits on type III collagen; assay: Perfusion chamber assay on type III collagen at 1000/sec, end-point grey level; assay type: cell-based, human; conditions: citrate blood, 2 donors before and after aspirin 325 mg/d for 3 days, DMSO-treated and P2Y12 antagonism+epinephrine-treated blood
Procedure: (§2) FIG. 9 is a representation of the thrombotic deposits formed on type III collagen at 1000/sec in the rectangular perfusion chamber in 2 blood donors, before and after aspirin uptake (325 mg/d for 3 days). Anticoagulated blood (citrate 3.8%, 1:9 v of blood) is collected and added into 5 ml tubes containing either DMSO (vehicle control for the P2Y12 antagonist), a direct P2Y12 antagonist at 5 μM (which totally block the receptor), or a direct P2Y12 antagonist at 5 μM in presence of 20 μM Epinephrine. Anticoagulated blood is perfused through a rectangular capillary (0.2×2 mm, Vitrocom) coated with fibrillar type III collagen at 1000/sec for 4 minutes. Thrombotic deposits are then rinsed for 15 seconds with buffer “C”, fixed for 1 minute in phosphate-buffered glutaraldehyde (2.5%), stained for 45 sec in toluidine blue. Picture is taken at 5 mm from the proximal part of the chamber, and measurement of the grey level performed with Prism software.
A perfusion chamber assay on type III collagen (DMSO (vehicle) treated (a), full P2Y12 antagonism (b), full P2Y12 antagonism with epinephrine 20 μM(c)) have been performed before and 3 days after a daily dose of aspirin (325 mg).

[6] = test system: platelet aggregation in PRP; assay: Arachidonic acid-induced platelet aggregation in PRP; assay type: cell-based, human; conditions: 325 mg/d ASA for 3 days, compared with baseline, all 5 donors
Procedure: as §1

TxB2 generation = assay: TxB2 generation; assay type: cell-based, human; conditions: 325 mg/d ASA for 3 days, compared with baseline, all 5 donors
Procedure: as §1

[7] = test system: mixed platelet/leukocyte aggregates; assay: Arachidonic acid-/shear-induced platelet aggregation assay in whole blood; assay type: cell-based; conditions: 0.8 mM arachidonic acid, 1700/sec followed by 80/sec
Procedure: FIG. 10 is a schematic representation of the AA/shear-induced thrombotic process utilized in our preliminary study. AA (0.8 mM) is added to citrate-anticoagulated blood (37° C. incubation time=1 minute) then perfused via a silastic tubing to a stenosis (high shear rate, 1700/sec: Hγ) followed by a low shear rate area (80/sec: Lγ). Observation of the mixed platelet/leukocyte aggregates is performed under UV at 10× magnification using a fluorescent microscope.
Platelets are labeled in whole blood with Rhodamine 6G as described above. Following addition of AA, blood will be perfused through 2 successive chambers which generate high (1500/sec) and low (50/sec) shear rates. The high shear rate induces platelet activation and aggregation is created by a sudden decrease in capillary diameter. The low shear rate area allows for the real time evaluation/quantification of the size of the platelet/platelet, platelet/leukocyte aggregates that will pass and/or adhere via the Simple PCI software or similar software capable of evaluating the size of the flowing thrombi.
Large mixed platelet/leukocyte aggregates are detectable in the low shear area (observable after less than 30 seconds) when whole blood is treated with 0.8 mM arachidonic acid and perfusion through a small uncoated circular capillary at 1700/sec followed by a larger capillary at 80/sec. […]

[8] = test system: thrombus formation on type III collagen; assay: Real time collagen-coated perfusion chamber, kinetics of thrombus formation; assay type: cell-based, human; conditions: 2.5 μM, PPACK-anticoagulated blood, collagen type III-coated capillary
Procedure: Phe-Pro-Arg-chloromethylketone (PPACK)-anticoagulated blood is added to a tube containing Rhodamine 6-glucose (Rhodamine 6G) (0.2 mg/ml). Five minutes later, blood is perfused through a rectangular capillary mounted on the stage of an inverted microscope (under ultraviolet (UV) light (Rhodamine filter) platelets appear fluorescent). As the blood flows on the collagen type III-coated capillary chamber, platelets adhere and start building a thrombus. Two frames per second are recorded and analyzed for mean fluorescent intensity for the entire perfusion period. At the end of the perfusion, standard deviation in light intensity is plotted against the time by the Prism software.
After blood collection into either citrate or PPACK (4 ml are needed per perfusion chamber) Rhodamine 6G (0.2 mg/mL) is added to the blood and incubated at 37° C. for 5 minutes. Collagen-coated rectangular glass capillaries (Vitrocom) are mounted on the stage of a fluorescent microscope and illuminated under light, UV, or both. […] Platelet collagen interactions and thrombus formation are recorded in real time with the Simple PCI software. The mean fluorescence intensity parallels the kinetics of the thrombotic process, because all platelets are labeled by rhodamine 6G. The kinetics of the thrombotic process is recorded at 2 frames per second for 5 minutes and plotted versus time.

P2Y12-deficient mice [9] = conditions: injection of epinephrine in vivo; cited from earlier work
P2Y12-deficient mice [10] = test system: P2Y12-deficient mice
From the text: This phenotype is rescued by the injection of epinephrine in vivo (Andre, P. et al., J Clin Invest, 112(3):398-406 (2003)).

P2Y12 receptor = target: T1, P2Y12 receptor (Homo sapiens, UniProt Q9H244); assay: P2Y12 receptor blockade in vitro in whole blood; assay type: cell-based; conditions: 5 μM
T1 construct: endogenous in cells; host or cells: platelets in citrate-anticoagulated whole blood of blood donors
Procedure: as §2
Most ACS patients eligible for percutaneous coronary intervention (PCI) are under PLAVIX (clopidogrel bisulfate) therapy. […]

T1 sequence (Q9H244 whole entry): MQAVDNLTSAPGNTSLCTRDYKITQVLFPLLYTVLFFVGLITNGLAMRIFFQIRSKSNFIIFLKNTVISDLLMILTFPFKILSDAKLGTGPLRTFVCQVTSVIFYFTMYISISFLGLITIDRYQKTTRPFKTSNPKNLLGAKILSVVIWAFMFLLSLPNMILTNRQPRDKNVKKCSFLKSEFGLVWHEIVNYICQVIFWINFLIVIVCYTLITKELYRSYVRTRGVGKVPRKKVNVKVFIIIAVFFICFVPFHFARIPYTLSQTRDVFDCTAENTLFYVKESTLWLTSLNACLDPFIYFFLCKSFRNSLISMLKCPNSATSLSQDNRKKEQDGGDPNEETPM

CSc1nc(N)c2ncn([C@@H]3O[C@H](COP(=O)(O)O)[C@@H](O)[C@H]3O)c2n1 [2-MeSAMP]
aggregation induced by ADP [1]: totally blocks | effect on preformed thrombi, aspirin background [2]: sudden dethrombosis | mean slope after first perfusion (mSAFP), aspirin background [2]: −4.1±0.7 | mean slope after first perfusion (mSAFP) [2]: −1.8±0.2 | effect on preformed thrombi [2]: marked dethrombosis

CC(=O)Oc1ccccc1C(=O)O [aspirin]
PFA-100 closure time, CEpi cartridge ([3]; all donors): prolongation | PFA-100 closure time, CADP cartridge ([3]; donor 1 (unusual phenotype)): increased | patients with aspirin-induced asthma (patients): ≤ 20% | reduction of post-acute myocardial infarction (AMI) cardiovascular events (patients): 25-30% | reduction of the incidence of AMI in the acute phase of unstable angina (patients): up to 25% | aspirin effects in RPFA-ASA (Aspirin Reaction Units) (platelet aggregation): smaller than that obtained with 50% inhibition of P2Y12 | antithrombotic effects on collagen in combination with P2Y12 inhibitors [4]: synergize | thrombotic deposits formed on type III collagen (grey level) [5]: aspirin effect is observed | arachidonic acid-induced platelet aggregation in PRP [6]: abolished | effect on preformed thrombi, aspirin background [2]: slow and moderate destabilization | mean slope after first perfusion (mSAFP), aspirin background [2]: −1.07±0.3 | TxB2 generation (TxB2 generation): abolished | large mixed platelet/leukocyte aggregates in the low shear area [7]: prevented

N=C(N)NCCCC[C@@H]1NC(=O)CCSSC[C@@H](C(N)=O)NC(=O)[C@@H]2CCCN2C(=O)[C@H](Cc2c[nH]c3ccccc23)NC(=O)[C@H](CC(=O)O)NC(=O)CNC1=O [eptifibatide] ([Mpa][hArg]GDWPC-NH2; disulfide 1-7)
thrombotic profile (real time kinetics of thrombus formation) [8]: flat curve | effect on preformed thrombi, aspirin background [2]: sudden dethrombosis | mean slope after first perfusion (mSAFP), aspirin background [2]: −2.6±0.9 | mean slope after first perfusion (mSAFP) [2]: 0.17±0.22 | effect on preformed thrombi [2]: no apparent destabilization

CCCCCNC(=O)c1coc([C@H]2[C@@H](Cc3ccccc3CCC(=O)O)[C@@H]3CC[C@H]2O3)n1 [Ifetroban]
effect on preformed thrombi, aspirin background [2]: abolished the destabilization effects | mean slope after first perfusion (mSAFP) [2]: −2.5±0.6

CNC[C@H](O)c1ccc(O)c(O)c1 [epinephrine]
protection of P2Y12-deficient mice from vascular occlusion after FeCl3 injury (P2Y12-deficient mice [9]): rescued | phenotype of P2Y12-deficient mice in a collagen-coated perfusion chamber (P2Y12-deficient mice [10]): correct the phenotype

CNc1cc2ccn(-c3ccc(NC(=O)NS(=O)(=O)c4ccc(Cl)s4)cc3)c(=O)c2cc1F [5-chloro-N-[({4-[7-fluoro-6-(methylamino)-1-oxoisoquinolin-2(1H)-yl]phenyl}amino)carbonyl]thiophene-2-sulfonamide]
blockade of the P2Y12 receptor (P2Y12 receptor): full blockade

CC(C)(C)N/C(=N\C#N)Nc1cccc(/C(=C\CCCC(=O)O)c2cccnc2)c1 [Terbogrel]
large mixed platelet/leukocyte aggregates in the low shear area [7]: prevented

CCCCC[C@H](O)/C=C/[C@H]1C(=O)C[C@H](O)[C@@H]1C/C=C\CCCC(=O)O [PDG2, PGD2]
effect on preformed thrombi, aspirin background [2]: significant, spontaneous reversal of thrombosis
